{
  "source": "paper PMC9090415",
  "about": "“Discovery of small molecule inhibitors of Plasmodium falciparum apicoplast DNA polymerase” (Journal of Enzyme Inhibition and Medicinal Chemistry, 2022)",
  "target": "P. falciparum apicoplast DNA polymerase (Pf-apPOL) (Plasmodium falciparum, UniProt Q8ILY1)",
  "sequence (Q8ILY1 entry or part of it)": "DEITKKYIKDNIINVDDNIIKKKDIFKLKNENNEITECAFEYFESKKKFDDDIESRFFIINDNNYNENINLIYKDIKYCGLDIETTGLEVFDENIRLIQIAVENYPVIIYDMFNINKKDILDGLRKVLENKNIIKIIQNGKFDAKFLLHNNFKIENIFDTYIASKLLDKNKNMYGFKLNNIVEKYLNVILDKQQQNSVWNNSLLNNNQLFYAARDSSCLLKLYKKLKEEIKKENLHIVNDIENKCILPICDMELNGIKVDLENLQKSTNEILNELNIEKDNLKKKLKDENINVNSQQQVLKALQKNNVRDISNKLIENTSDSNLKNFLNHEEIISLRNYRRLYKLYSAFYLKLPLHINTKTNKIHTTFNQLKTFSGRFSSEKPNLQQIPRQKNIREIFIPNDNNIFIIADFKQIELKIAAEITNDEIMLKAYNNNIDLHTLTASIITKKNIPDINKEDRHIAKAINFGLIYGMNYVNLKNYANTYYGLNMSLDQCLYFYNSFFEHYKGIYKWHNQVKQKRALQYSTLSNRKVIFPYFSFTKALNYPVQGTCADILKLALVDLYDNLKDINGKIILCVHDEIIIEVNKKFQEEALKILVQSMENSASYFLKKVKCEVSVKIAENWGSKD",
  "experiment": "Fluorescence-based high-throughput DNA polymerase assay (molecular beacon), primary screen and dose-response;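 as to % inhibition ApPOL 90': test concentration in µM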;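 as to % inhibition Apol 40': compound concentration given in µM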;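 as to % inhibition apPOL 180': test concentration in µM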",
  "format": "biochemical",
  "conditions": "for DNA Pol: 90 min, 10 µM",
  "outline": "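Single-point screening used 10 µM compound with 20 nM polymerase, 20 nM hairpin substrate and 6 µM dNTPs for 90 min at 25 °C. Confirmatory titrations (2.5–80 µM) followed fluorescence at three times, and IC50 was derived from a fit including a cooperativity term n.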",
  "data": [
    {"smiles": "CC(C)(C)OC(=O)COc1ccc2cc(-c3ccccc3)c(=O)oc2c1", "note": "[Molecule 81, O=C(OC(C)(C)C)COc1ccc2c(c1)oc(=O)c(c2)c1ccccc1]", "values": [
      {"measurement": "DNA Pol", "setting": "'DNA Pol' of the 186 hits list (primary screen value)", "result": 44},
      {"measurement": "DNA Pol", "setting": "DNA Pol (primary screen value)", "result": 44},
      {"measurement": "% inhibition Apo pol 10'", "setting": "DRC-1, concentration 2.5", "result": -2.0657, "unit": "%"},
      {"measurement": "% inhibition Apo pol 10'", "setting": "DRC-1, concentration 5", "result": -5.666, "unit": "%"},
      {"measurement": "% inhibition Apo pol 10'", "setting": "DRC-1, concentration 10", "result": 3.988, "unit": "%"},
      {"measurement": "% inhibition Apo pol 10'", "setting": "DRC-1, concentration 20", "result": 8.332, "unit": "%"},
      {"measurement": "% inhibition Apo pol 10'", "setting": "DRC-1, concentration 40", "result": 16.7579, "unit": "%"},
      {"measurement": "% inhibition Apo pol 10'", "setting": "DRC-1, concentration 80", "result": 23.4286, "unit": "%"},
      {"measurement": "% inhibition Apol 90'", "setting": "DRC-1, concentration 2.5", "result": 2.03, "unit": "%"},
      {"measurement": "% inhibition Apol 90'", "setting": "DRC-1, concentration 5", "result": 3.443, "unit": "%"},
      {"measurement": "% inhibition Apol 90'", "setting": "DRC-1, concentration 10", "result": 16.0875, "unit": "%"},
      {"measurement": "% inhibition Apol 90'", "setting": "DRC-1, concentration 20", "result": 22.5271, "unit": "%"},
      {"measurement": "% inhibition Apol 90'", "setting": "DRC-1, concentration 40", "result": 30.9519, "unit": "%"},
      {"measurement": "% inhibition Apol 90'", "setting": "DRC-1, concentration 80", "result": 41.1721, "unit": "%"},
      {"measurement": "% inhibition apPOL 180'", "setting": "DRC-1, concentration 2.5", "result": 5.717, "unit": "%"},
      {"measurement": "% inhibition apPOL 180'", "setting": "DRC-1, concentration 5", "result": 14.8656, "unit": "%"},
      {"measurement": "% inhibition apPOL 180'", "setting": "DRC-1, concentration 10", "result": 30.2199, "unit": "%"},
      {"measurement": "% inhibition apPOL 180'", "setting": "DRC-1, concentration 20", "result": 41.9896, "unit": "%"},
      {"measurement": "% inhibition apPOL 180'", "setting": "DRC-1, concentration 40", "result": 50.3603, "unit": "%"},
      {"measurement": "% inhibition apPOL 180'", "setting": "DRC-1, concentration 80", "result": 64.7026, "unit": "%"},
      {"measurement": "% inhibition Apo pol 5'", "setting": "DRC-2, concentration 2.5", "result": 8, "unit": "%"},
      {"measurement": "% inhibition Apo pol 5'", "setting": "DRC-2, concentration 5", "result": 10, "unit": "%"},
      {"measurement": "% inhibition Apo pol 5'", "setting": "DRC-2, concentration 10", "result": 23, "unit": "%"},
      {"measurement": "% inhibition Apo pol 5'", "setting": "DRC-2, concentration 20", "result": 28, "unit": "%"},
      {"measurement": "% inhibition Apo pol 5'", "setting": "DRC-2, concentration 40", "result": 36, "unit": "%"},
      {"measurement": "% inhibition Apo pol 5'", "setting": "DRC-2, concentration 80", "result": 44, "unit": "%"},
      {"measurement": "% inhibition Apol 40'", "setting": "DRC-2, concentration 2.5", "result": 5.4, "unit": "%"},
      {"measurement": "% inhibition Apol 40'", "setting": "DRC-2, concentration 5", "result": -3, "unit": "%"},
      {"measurement": "% inhibition Apol 40'", "setting": "DRC-2, concentration 10", "result": 19, "unit": "%"},
      {"measurement": "% inhibition Apol 40'", "setting": "DRC-2, concentration 20", "result": 25, "unit": "%"},
      {"measurement": "% inhibition Apol 40'", "setting": "DRC-2, concentration 40", "result": 33, "unit": "%"},
      {"measurement": "% inhibition Apol 40'", "setting": "DRC-2, concentration 80", "result": 44, "unit": "%"},
      {"measurement": "% inhibition ApPOL 90'", "setting": "DRC-2, concentration 2.5", "result": 3.57, "unit": "%"},
      {"measurement": "% inhibition ApPOL 90'", "setting": "DRC-2, concentration 5", "result": -14, "unit": "%"},
      {"measurement": "% inhibition ApPOL 90'", "setting": "DRC-2, concentration 10", "result": 13, "unit": "%"},
      {"measurement": "% inhibition ApPOL 90'", "setting": "DRC-2, concentration 20", "result": 18, "unit": "%"},
      {"measurement": "% inhibition ApPOL 90'", "setting": "DRC-2, concentration 40", "result": 27, "unit": "%"},
      {"measurement": "% inhibition ApPOL 90'", "setting": "DRC-2, concentration 80", "result": 38, "unit": "%"},
      {"measurement": "% inhibition apPOL 180'", "setting": "DRC-2, concentration 2.5", "result": -1.44, "unit": "%"},
      {"measurement": "% inhibition apPOL 180'", "setting": "DRC-2, concentration 5", "result": -93, "unit": "%"},
      {"measurement": "% inhibition apPOL 180'", "setting": "DRC-2, concentration 10", "result": 1.59, "unit": "%"},
      {"measurement": "% inhibition apPOL 180'", "setting": "DRC-2, concentration 20", "result": 2.69, "unit": "%"},
      {"measurement": "% inhibition apPOL 180'", "setting": "DRC-2, concentration 40", "result": 13, "unit": "%"},
      {"measurement": "% inhibition apPOL 180'", "setting": "DRC-2, concentration 80", "result": 23, "unit": "%"}
    ]},
    {"smiles": "O=C(Cc1cc(=O)[nH]c(SCc2ccccc2)n1)Nc1ccc2c(c1)OCO2", "note": "[Molecule 46, O=C(Cc1cc(=O)[nH]c(n1)SCc1ccccc1)Nc1ccc2c(c1)OCO2]", "values": [
      {"measurement": "DNA Pol", "setting": "\"DNA Pol\" of the 186 hits list (screen value)", "result": 35},
      {"measurement": "% inhibition Apo pol 10'", "setting": "DRC-1, concentration 2.5", "result": -0.9773, "unit": "%"},
      {"measurement": "% inhibition Apo pol 10'", "setting": "DRC-1, concentration 5", "result": 2.643, "unit": "%"},
      {"measurement": "% inhibition Apo pol 10'", "setting": "DRC-1, concentration 10", "result": 32.2663, "unit": "%"},
      {"measurement": "% inhibition Apo pol 10'", "setting": "DRC-1, concentration 20", "result": 58.1636, "unit": "%"},
      {"measurement": "% inhibition Apo pol 10'", "setting": "DRC-1, concentration 40", "result": 83.7049, "unit": "%"},
      {"measurement": "% inhibition Apo pol 10'", "setting": "DRC-1, concentration 80", "result": 86.7652, "unit": "%"},
      {"measurement": "% inhibition Apol 90'", "setting": "DRC-1, concentration 2.5", "result": -4.834, "unit": "%"},
      {"measurement": "% inhibition Apol 90'", "setting": "DRC-1, concentration 5", "result": -3.621, "unit": "%"},
      {"measurement": "% inhibition Apol 90'", "setting": "DRC-1, concentration 10", "result": 17.8668, "unit": "%"},
      {"measurement": "% inhibition Apol 90'", "setting": "DRC-1, concentration 20", "result": 43.05, "unit": "%"},
      {"measurement": "% inhibition Apol 90'", "setting": "DRC-1, concentration 40", "result": 73.6983, "unit": "%"},
      {"measurement": "% inhibition Apol 90'", "setting": "DRC-1, concentration 80", "result": 82.3218, "unit": "%"},
      {"measurement": "% inhibition apPOL 180'", "setting": "DRC-1, concentration 2.5", "result": -11.1217, "unit": "%"},
      {"measurement": "% inhibition apPOL 180'", "setting": "DRC-1, concentration 5", "result": -9.027, "unit": "%"},
      {"measurement": "% inhibition apPOL 180'", "setting": "DRC-1, concentration 10", "result": 5.286, "unit": "%"},
      {"measurement": "% inhibition apPOL 180'", "setting": "DRC-1, concentration 20", "result": 25.3173, "unit": "%"},
      {"measurement": "% inhibition apPOL 180'", "setting": "DRC-1, concentration 40", "result": 61.8193, "unit": "%"},
      {"measurement": "% inhibition apPOL 180'", "setting": "DRC-1, concentration 80", "result": 77.2818, "unit": "%"},
      {"measurement": "% inhibition Apo pol 5'", "setting": "DRC-2, concentration 2.5", "result": -0.743, "unit": "%"},
      {"measurement": "% inhibition Apo pol 5'", "setting": "DRC-2, concentration 5", "result": -0.197, "unit": "%"},
      {"measurement": "% inhibition Apo pol 5'", "setting": "DRC-2, concentration 10", "result": 23, "unit": "%"},
      {"measurement": "% inhibition Apo pol 5'", "setting": "DRC-2, concentration 20", "result": 29, "unit": "%"},
      {"measurement": "% inhibition Apo pol 5'", "setting": "DRC-2, concentration 40", "result": 27, "unit": "%"},
      {"measurement": "% inhibition Apo pol 5'", "setting": "DRC-2, concentration 80", "result": 20, "unit": "%"},
      {"measurement": "% inhibition Apol 40'", "setting": "DRC-2, concentration 2.5", "result": -1, "unit": "%"},
      {"measurement": "% inhibition Apol 40'", "setting": "DRC-2, concentration 5", "result": 0.92, "unit": "%"},
      {"measurement": "% inhibition Apol 40'", "setting": "DRC-2, concentration 10", "result": 30, "unit": "%"},
      {"measurement": "% inhibition Apol 40'", "setting": "DRC-2, concentration 20", "result": 47, "unit": "%"},
      {"measurement": "% inhibition Apol 40'", "setting": "DRC-2, concentration 40", "result": 55, "unit": "%"},
      {"measurement": "% inhibition Apol 40'", "setting": "DRC-2, concentration 80", "result": 53, "unit": "%"},
      {"measurement": "% inhibition ApPOL 90'", "setting": "DRC-2, concentration 2.5", "result": -1, "unit": "%"},
      {"measurement": "% inhibition ApPOL 90'", "setting": "DRC-2, concentration 5", "result": -0.186, "unit": "%"},
      {"measurement": "% inhibition ApPOL 90'", "setting": "DRC-2, concentration 10", "result": 27, "unit": "%"},
      {"measurement": "% inhibition ApPOL 90'", "setting": "DRC-2, concentration 20", "result": 49, "unit": "%"},
      {"measurement": "% inhibition ApPOL 90'", "setting": "DRC-2, concentration 40", "result": 60, "unit": "%"},
      {"measurement": "% inhibition ApPOL 90'", "setting": "DRC-2, concentration 80", "result": 61, "unit": "%"},
      {"measurement": "% inhibition apPOL 180'", "setting": "DRC-2, concentration 2.5", "result": -5.33, "unit": "%"},
      {"measurement": "% inhibition apPOL 180'", "setting": "DRC-2, concentration 5", "result": -9, "unit": "%"},
      {"measurement": "% inhibition apPOL 180'", "setting": "DRC-2, concentration 10", "result": 17, "unit": "%"},
      {"measurement": "% inhibition apPOL 180'", "setting": "DRC-2, concentration 20", "result": 41, "unit": "%"},
      {"measurement": "% inhibition apPOL 180'", "setting": "DRC-2, concentration 40", "result": 62, "unit": "%"},
      {"measurement": "% inhibition apPOL 180'", "setting": "DRC-2, concentration 80", "result": 67, "unit": "%"},
      {"measurement": "DNA Pol", "setting": "primary screen value, DNA Pol", "result": 35}
    ]}
  ]
}
